How the values were obtained:
individuals with DMD = settings: individuals with DMD; cited from earlier work
[1] = tested on: mRNA expression in peripheral blood of individuals with DMD; experiment: Whole-blood gene expression microarray: DMD administered prednisone or deflazacort vs DMD not administered steroid; format: in vivo, human
Description: Fifteen ml of blood was collected from each individual into 6 PAXgene® Vacutainer® tubes (PreAnalytiX, Germany) by antecubital fossa venipuncture. PAXgene® tubes contain a proprietary reagent that immediately stabilizes RNA, thus reducing RNA degradation and minimizing gene expression changes following phlebotomy. The tubes were then inverted 20 times, then remained undisturbed for 2 h at room temperature (about 19° C. to about 22° C.), and then stored at -70° C. until processed. Total RNA was isolated using the Paxgene® blood RNA kit (PreAnalytiX, Germany) according to the manufacturers instructions. The RNA isolated is from all cells in whole blood. […] Sample labeling, hybridization to chips, and image scanning were performed using standard Affymetrix protocols. For each whole blood sample from control individuals and individuals with DMD, total RNA was labeled using the One-Cycle Target Labeling protocol and hybridized to the arrays. […] Double-stranded cDNA synthesis, biotin-labeled cRNA synthesis, and cRNA fragmentation were performed according to the Affymetrix GeneChip Eukaryotic Expression Analysis protocol. […] After hybridization, the array was washed and stained. […] After scanning the array, the raw probe level values for each probe were saved in Affymetrix.cel files. […] Statistical analyses, including t-test analyses, unsupervised hierarchical clustering, and principal component analyses were conducted using Genespring 7.2 software ([…]® 7, Silicon Genetics, Redwood City Calif.). […] Corrections for multiple comparisons used a Benjamini-Hochberg False Discovery Rate (FDR) of 0.05, disclosed in Tang et al., J Cereb Blood Flow Metab 26 (2006) 1089, which is expressly incorporated by reference herein in its entirety. […] Individuals with DMD were evaluated and had been diagnosed by a single board-certified pediatric neurologist. The diagnosis of DMD was based in part upon clinical history, examination findings, and selected muscle biopsies and was confirmed by molecular diagnostic testing. […] Sample processing and array hybridization, probe-level data analysis, and statistical analysis were identical to Example 1.

[2] = tested on: mRNA expression in peripheral blood of individuals with DMD; experiment: Whole-blood gene expression microarray: DMD administered deflazacort vs DMD administered prednisone; format: in vivo, human; settings: blood
Description: Fifteen ml of blood was collected from each individual into 6 PAXgene® Vacutainer® tubes (PreAnalytiX, Germany) by antecubital fossa venipuncture. PAXgene® tubes contain a proprietary reagent that immediately stabilizes RNA, thus reducing RNA degradation and minimizing gene expression changes following phlebotomy. The tubes were then inverted 20 times, then remained undisturbed for 2 h at room temperature (about 19° C. to about 22° C.), and then stored at -70° C. until processed. Total RNA was isolated using the Paxgene® blood RNA kit (PreAnalytiX, Germany) according to the manufacturers instructions. The RNA isolated is from all cells in whole blood. Typical yields of total RNA isolated from about 7.5 ml of human whole blood were between 10 μg RNA and 40 μg RNA. RNA quality and purity was analyzed by spectrophotometry using the Nanodrop ND-1000, and RNA integrity was analyzed using the Agilent 2100 Bioanalyzer. […] Sample labeling, hybridization to chips, and image scanning were performed using standard Affymetrix protocols. For each whole blood sample from control individuals and individuals with DMD, total RNA was labeled using the One-Cycle Target Labeling protocol and hybridized to the arrays. […] Double-stranded cDNA synthesis, biotin-labeled cRNA synthesis, and cRNA fragmentation were performed according to the Affymetrix GeneChip Eukaryotic Expression Analysis protocol. The labeled, fragmented cRNA (15 μg) was hybridized at 45° C. overnight. After hybridization, the array was washed and stained. The arrays were scanned with an argon-ion laser at λ=570 nm, with a resolution of 3 μm/pixel (Affymetrix, Inc.). After scanning the array, the raw probe level values for each probe were saved in Affymetrix.cel files. […] Statistical analyses, including t-test analyses, unsupervised hierarchical clustering, and principal component analyses were conducted using Genespring 7.2 software ([…]® 7, Silicon Genetics, Redwood City Calif.). […] Corrections for multiple comparisons used a Benjamini-Hochberg False Discovery Rate (FDR) of 0.05, disclosed in Tang et al., J Cereb Blood Flow Metab 26 (2006) 1089, which is expressly incorporated by reference herein in its entirety. […] Sample processing and array hybridization, probe-level data analysis, and statistical analysis were identical to Example 1.

mdx mouse = settings: cited from earlier work
[3] = DMD administered deflazacort or prednisone vs not administered

Row | expression of interleukin 1 beta, interleukin 1 receptor antagonist, and interleukin 6 receptor ([2]; individuals with DMD administered prednisone) | Molecule | muscle function and strength (individuals with DMD) | expression levels of FKBP5 [1, 3] | expression levels of genes in the chondroitin sulfate biosynthesis pathway [1, 3] | expression levels of haptoglobin and CD163 nucleic acids [1, 3] | expression levels of lactotransferrin and lipocalin [1, 3] | expression of KFL10 ([1]; individuals administered prednisone, deflazacort, or both vs DMD not administered any agent) | expression of genes related to lipid metabolism ([2]; prednisone compared to deflazacort) | expression of KFL10 (mdx mouse; six weeks of prednisone administration in the mdx mouse) | function and histology (mdx mouse; mdx mouse)
1 |  | Cn1cnc([N+](=O)[O-])c1Sc1ncnc2nc[nH]c12 [azathioprine] | no improvement |  |  |  |  |  |  |  | 
2 | up-regulated | C[C@]12C=CC(=O)C=C1CC[C@@H]1[C@@H]2C(=O)C[C@@]2(C)[C@H]1CC[C@]2(O)C(=O)CO [prednisone] | improved muscle function and strength | up-regulated | up-regulated | up-regulated | increased expression levels | up-regulated | up-regulated | up-regulated | 
3 |  | cyclosporin A |  |  |  |  |  |  |  |  | improves function and histology
